Measurements: paper PMC10786919, “Design-rules for stapled peptides with in vivo activity and their application to Mdm2/X antagonists” (Nature Communications, 2024)
≈ marks a conversion by molar mass, not a printed value. Where two headings read alike, the source gives them in different places. Positions of bridges follow the written chain, without caps; N, C: chain ends. Non-standard residues stand in square brackets, D forms with d. Residues, ends and D or L forms follow the SMILES beside them. Lys(N3) = [N-]=[N+]=NCCCC[C@H](N)C(=O)O; R8 = C=CCCCCCC[C@@](C)(N)C(=O)O; Cba = N[C@@H](CC1CCC1)C(=O)O; S5 = C=CCCC[C@](C)(N)C(=O)O; βAla = NCCC(=O)O

What was measured:
[1] = Experimental LogD (partition coefficient); settings: for logD: not stated, Partition Coeff LogD
[2] = tested on: CellSensor p53RE-bla HCT-116 Cell Line; settings: 72 h
Method: (§1) The medium for CellSensor™ p53RE-bla HCT-116 cells was McCoy’s 5 A Medium (GIBCO16600-002) supplied with 10% FBS (Hyclone, SH30406.05), 100 U/100ug/ml of Pen/Strep (SolarBio, P1400) and 5 μg/ml of blasticidin (GIBCO, A11139). The medium for Ca Ski cells was RPMI1640 (Hyclone, SH3080901B) supplied with 10% FBS and 100 U/100ug/ml of Pen/Strep. All cells were kept in humidified incubators with 5% CO2 at 37 °C. Culture media was changed after one day of subculturing and cells were passed again when there was 70–80% confluence. One day before the assay, the cells were trypsinized, collected, counted and viability was determined. […] The plates were kept in humidified incubators with 5% CO2 at 37 °C overnight. Compounds were prepared as a 10 point, 3x serial dilution in 100% DMSO, starting from a top concentration of 10 mM. […] At the end of the incubation the assay plate was equilibrated at room temperature for approximately 30 minutes prior to the addition of 25 uL of CellTiter-Glo® 2.0 Reagent. The assay plate was mixed for 2 minutes on an orbital shaker to induce cell lysis. Next, the plate was incubated at room temperature for 10 minutes to stabilize the luminescent signal prior to recording the luminescence on a plate reader.

Ca Ski cell line = settings: 72 h
Method: as §1

[3] = Lactate dehydrogenase (LDH) release assay; assay type: cell-based; settings: LDH: Cytotoxicity assay EC50
Method in brief: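 HCT116 cells stably carrying a p53-responsive β-lactamase reporter, seeded at 8000 cells/well, exposed to compound with 0.5% final DMSO. LDH release read with the CytoTox-ONE membrane integrity kit. Values are geometric means of at least three biological replicates.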

[4] = Solubility assay (kinetic solubility, PBS pH 7); assay type: physicochemical; settings: for solubility kinetic: pH 7, aqueous buffer, kinetic from dmso stock, read-out: Solubility
Method in brief: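 Reference standards were made by diluting the 10 mM stock to 100 µM in acetonitrile:methanol:DMSO 10:80:10. Solubility in µM was calculated as the sample peak area divided by the standard peak area, multiplied by the standard concentration.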

in vitro = settings: Nanoclick permeability assay EC50
Method in brief: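 Azido-peptide permeability was read as loss of NanoBRET signal (donor 450 nm, acceptor 610 nm) after adding NanoBret618-azide at 10 μM final.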

SMILES | logD [1] | EPSA (physchem) | EC50 [2] | EC50 (Ca Ski cell line) | EC50 [3] | Solubility ([4]; pH 7, PBS) | cell entry EC50 (in vitro) | solubility kinetic ([4]; pH 7, PBS) | Partition Coeff LogD [1] | Partition Coeff LogD ([1]; experimental) | Solubility [4]
CC(=O)N[C@@H](CCCCN=[N+]=[N-])C(=O)NCCC(=O)N[C@@H](CC(C)C)C(=O)N[C@H](C(=O)N[C@@H](Cc1ccccc1)C(=O)N[C@]1(C)CCCCCCC=CCCC[C@@](C)(C(=O)N[C@@H](CO)C(=O)N[C@@H](C)C(=O)N[C@@H](C)C(N)=O)NC(=O)[C@H](CC2CCC2)NC(=O)[C@H](CCC(N)=O)NC(=O)[C@H](C)NC(=O)[C@H](Cc2c[nH]c3ccccc23)NC(=O)[C@H](Cc2ccc(O)cc2)NC(=O)[C@H](CCCNC(=N)N)NC1=O)[C@@H](C)O [MP-554] (Ac-[Lys(N3)][βAla]LTF[R8]RYWAQ[Cba][S5]SAA-NH2; staple 6-13) | 3.28 | 215 A^2 | 5.79 µM | 11.4 µM | 30.4 µM | Poorly Behaved | 0.586 µM |  |  |  | 
CC(=O)N[C@@H](CCCCN=[N+]=[N-])C(=O)NCCC(=O)N[C@@H](CC(C)C)C(=O)N[C@H](C(=O)N[C@@H](Cc1ccccc1)C(=O)N[C@]1(C)CCCCCCC=CCCC[C@@](C)(C(=O)N[C@@H](CO)C(=O)N[C@@H](C)C(=O)N[C@@H](C)C(N)=O)NC(=O)[C@H](CC2CCC2)NC(=O)[C@H](CCC(N)=O)NC(=O)[C@H](CCCNC(=N)N)NC(=O)[C@H](Cc2c[nH]c3ccccc23)NC(=O)[C@H](Cc2ccc(O)cc2)NC(=O)[C@H](CCC(=O)O)NC1=O)[C@@H](C)O [MP-555] (Ac-[Lys(N3)][βAla]LTF[R8]EYWRQ[Cba][S5]SAA-NH2; staple 6-13) | 2.92 | 220 A^2 | 6.25 µM | > 49.8 µM | > 50 µM |  | 0.249 µM | 2 µM (≈ 4.11 µg/mL) |  |  | 
CC(=O)N[C@@H](CCCCN=[N+]=[N-])C(=O)NCCC(=O)N[C@@H](CCCNC(=N)N)C(=O)N[C@H](C(=O)N[C@@H](Cc1ccccc1)C(=O)N[C@]1(C)CCCCCCC=CCCC[C@@](C)(C(=O)N[C@@H](CO)C(=O)N[C@@H](C)C(=O)N[C@@H](C)C(N)=O)NC(=O)[C@H](CC2CCC2)NC(=O)[C@H](CCC(N)=O)NC(=O)[C@H](C)NC(=O)[C@H](Cc2c[nH]c3ccccc23)NC(=O)[C@H](Cc2ccc(O)cc2)NC(=O)[C@H](CCC(=O)O)NC1=O)[C@@H](C)O [MP-552] (Ac-[Lys(N3)][βAla]RTF[R8]EYWAQ[Cba][S5]SAA-NH2; staple 6-13) | 2.81 | 230 A^2 | 4.32 µM | 39.9 µM | > 50 µM |  | 0.0896 µM | 2 µM (≈ 4.03 µg/mL) |  |  | 
CC(=O)N[C@@H](CCCCN=[N+]=[N-])C(=O)NCCC(=O)N[C@@H](Cc1c[nH]c2ccccc12)C(=O)N[C@H](C(=O)N[C@@H](Cc1ccccc1)C(=O)N[C@]1(C)CCCCCCC=CCCC[C@@](C)(C(=O)N[C@@H](CO)C(=O)N[C@@H](C)C(=O)N[C@@H](C)C(N)=O)NC(=O)[C@H](CC2CCC2)NC(=O)[C@H](CCC(N)=O)NC(=O)[C@H](C)NC(=O)[C@H](Cc2c[nH]c3ccccc23)NC(=O)[C@H](Cc2ccc(O)cc2)NC(=O)[C@H](CCC(=O)O)NC1=O)[C@@H](C)O [MP-183] (Ac-[Lys(N3)][βAla]WTF[R8]EYWAQ[Cba][S5]SAA-NH2; staple 6-13) | 3.04 | 247 A^2 | 5.74 µM | 38.5 µM | > 50 µM |  | 0.229 µM | 19 µM (≈ 38.8 µg/mL) |  |  | 
CC(=O)N[C@@H](CCCCN=[N+]=[N-])C(=O)NCCC(=O)N[C@@H](Cc1c[nH]cn1)C(=O)N[C@H](C(=O)N[C@@H](Cc1ccccc1)C(=O)N[C@]1(C)CCCCCCC=CCCC[C@@](C)(C(=O)N[C@@H](CO)C(=O)N[C@@H](C)C(=O)N[C@@H](C)C(N)=O)NC(=O)[C@H](CC2CCC2)NC(=O)[C@H](CCC(N)=O)NC(=O)[C@H](C)NC(=O)[C@H](Cc2c[nH]c3ccccc23)NC(=O)[C@H](Cc2ccc(O)cc2)NC(=O)[C@H](CCC(=O)O)NC1=O)[C@@H](C)O [MP-173, AZIDE-ATSP-7041 (L1H)] (Ac-[Lys(N3)][βAla]HTF[R8]EYWAQ[Cba][S5]SAA-NH2; staple 6-13) | 2.73 | 232 A^2 | 5.14 µM | 35.3 µM | > 50 µM |  | 0.0406 µM | 5 µM (≈ 9.97 µg/mL) |  |  | 
CC(=O)N[C@@H](CCCCN=[N+]=[N-])C(=O)NCCC(=O)N[C@@H](CC(C)C)C(=O)N[C@H](C(=O)N[C@@H](Cc1ccccc1)C(=O)N[C@]1(C)CCCCCCC=CCCC[C@@](C)(C(=O)N[C@@H](CCC(=O)O)C(=O)N[C@@H](C)C(=O)N[C@@H](C)C(N)=O)NC(=O)[C@H](CC2CCC2)NC(=O)[C@H](CCC(N)=O)NC(=O)[C@H](C)NC(=O)[C@H](Cc2c[nH]c3ccccc23)NC(=O)[C@H](Cc2ccc(O)cc2)NC(=O)[C@H](CCC(=O)O)NC1=O)[C@@H](C)O [MP-182] | 2.5 | 251 A^2 | 1.31 µM | > 49.8 µM | > 50 µM |  | 0.223 µM | 163 µM (≈ 328 µg/mL) |  |  | 
CC(=O)N[C@@H](CCCCN=[N+]=[N-])C(=O)NCCC(=O)N[C@@H](CC(C)C)C(=O)N[C@H](C(=O)N[C@@H](Cc1ccccc1)C(=O)N[C@]1(C)CCCCCCC=CCCC[C@@](C)(C(=O)N[C@@H](C)C(=O)N[C@@H](C)C(=O)N[C@@H](C)C(N)=O)NC(=O)[C@H](CC2CCC2)NC(=O)[C@H](CCC(N)=O)NC(=O)[C@H](C)NC(=O)[C@H](Cc2c[nH]c3ccccc23)NC(=O)[C@H](Cc2ccc(O)cc2)NC(=O)[C@H](C)NC1=O)[C@@H](C)O [MP-8965] (Ac-[Lys(N3)][βAla]LTF[R8]AYWAQ[Cba][S5]AAA-NH2; staple 6-13) |  | 205 A^2 | 0.855 µM | > 49.8 µM | > 50 µM | Poorly Behaved | 0.112 µM |  | Poorly Behaved | P.B. | P.B.
CC(=O)N[C@@H](CCCCN=[N+]=[N-])C(=O)NCCC(=O)N[C@@H](CC(C)C)C(=O)N[C@@H](CCC(=O)O)C(=O)N[C@@H](Cc1ccccc1)C(=O)N[C@]1(C)CCCCCCC=CCCC[C@@](C)(C(=O)N[C@@H](CO)C(=O)N[C@@H](C)C(=O)N[C@@H](C)C(N)=O)NC(=O)[C@H](CC2CCC2)NC(=O)[C@H](CCC(N)=O)NC(=O)[C@H](C)NC(=O)[C@H](Cc2c[nH]c3ccccc23)NC(=O)[C@H](Cc2ccc(O)cc2)NC(=O)[C@H](CCC(=O)O)NC1=O [MP-179] | 2.5 | 243 A^2 | 13.6 µM | > 49.8 µM | > 50 µM |  | 0.173 µM | 102 µM (≈ 205 µg/mL) |  |  | 
CC(=O)N[C@@H](CCCCN=[N+]=[N-])C(=O)NCCC(=O)N[C@@H](CC(C)C)C(=O)N[C@H](C(=O)N[C@@H](Cc1ccccc1)C(=O)N[C@]1(C)CCCCCCC=CCCC[C@@](C)(C(=O)N[C@@H](CO)C(=O)N[C@@H](C)C(=O)N[C@@H](C)C(N)=O)NC(=O)[C@H](CC2CCC2)NC(=O)[C@H](CCC(=O)O)NC(=O)[C@H](C)NC(=O)[C@H](Cc2c[nH]c3ccccc23)NC(=O)[C@H](Cc2ccc(O)cc2)NC(=O)[C@H](CCC(=O)O)NC1=O)[C@@H](C)O [MP-181] | 2.74 | 249 A^2 | 4.64 µM | > 49.8 µM | > 50 µM |  | 0.304 µM | 179 µM (≈ 353 µg/mL) |  |  | 
